Experimental data taken from the SangsterLogP compilation.

Assay: method code SF-AS, from DOI: 10.1002/hlca.19830660215
Conditions: for logD: pH 11.0

Structure (SMILES)	logD	logP
CCN(CC)CCCNC(=O)c1ccccc1OC		1.76
COc1ccccc1C(=O)NCCN		0
COc1ccccc1C(=O)NCCCN(C)C		1.27
COc1ccccc1C(=O)NCCN(C)C		1.14
COc1ccccc1C(=O)N1CCN(C)CC1		0.29
CCN(CC)CCNC(=O)c1ccccc1OC		1.98

Next, values leading:

logD	logP	Structure (SMILES)
1.27		CN(C)CCCNC(=O)c1ccccc1
0.06		NCCNC(=O)c1ccccc1
0.3		NCCCNC(=O)c1ccccc1
1.84		CCN(CC)CCNC(=O)c1ccccc1
	1.1	CN(C)CCNC(=O)c1ccccc1
0.58		NCCCCNC(=O)c1ccccc1
0.58		COc1ccccc1C(=O)NCCCCN
1.56		CCN(CC)CCCNC(=O)c1ccccc1
